Laboratory results: PubChem BioAssay AID2060596 (Global Health Medicines R&D, GSK, 2025)
Calls of active or inactive are those of the source.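 How the source made its calls: active means IC50 at or below about 50119 nM, measured in restricted growth medium; inactive means the rest.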

System: HepG2 viability, ATP luminescence, 48 h
Test: HepG2 cell cytotoxicity, dose response, cytotoxicity control (AID 2060596)

Structure (SMILES) | IC50
O=C(Nc1nnc(-c2ccccc2)s1)N1CCCN(c2ncccn2)CC1 | > 100 µM (inactive)
COc1ccc(-c2ccc(CNC(=O)c3cc(C(=O)NC(C)C)ccc3Cl)cc2)cn1 | > 100 µM (inactive)
O=C(COc1ccc(Br)cc1F)N1CCN(c2cnccn2)CC1 | > 100 µM (inactive)
COc1ccc2oc(C(=O)NC3CCC(Oc4ncccn4)CC3)cc2c1 (stereo not drawn) | > 100 µM (inactive)
O=C(NCCCN1CCc2ccccc21)c1ccc2c(=O)n(Cc3ccccn3)cnc2c1 | > 100 µM (inactive)
O=C(/C=C/c1n[nH]c2ccccc12)Nc1ccc(C(=O)NCCN2CCOCC2)cc1 | > 100 µM (inactive)
CC(C)Oc1ccc(-c2nnc(Oc3cccc4c3CCN(CCC(N)=O)CC4)s2)cc1C#N | 20 µM
Cc1nn(C2CCS(=O)(=O)C2)c(C)c1CN(C)C(=O)CN1C(=O)NC2(CCCCC2C)C1=O (stereo not drawn) | 79.4 µM
N#Cc1c(N)n[nH]c1CCCNC(=O)c1ccc(Cl)c(S(=O)(=O)N2CCCC2)c1 | > 100 µM (inactive)
O=C(/C=C/c1n[nH]c2ccccc12)N1CCN(c2cnccn2)CC1 | > 100 µM (inactive)
O=C1CSc2ccc(C(=O)Nc3ccc(-c4nnc5n4CCCCC5)cc3)cc2N1 | > 100 µM (inactive)
CCN(C(=O)C=Cc1ccc(S(=O)(=O)N2CCc3ccccc32)cc1)C1CCS(=O)(=O)C1 (stereo not drawn) | > 100 µM (inactive)
O=C(CCCc1ncc(-c2ccccc2)o1)N1CCOC2CCCC21 (stereo not drawn) | > 100 µM (inactive)
NC(=O)CC1CCN(C(=O)c2sc3sccc3c2Cl)CC1 | > 100 µM (inactive)
Cc1cccc(-c2nn(Cc3ccc(C(=O)NCCCO)cc3)c(=O)cc2N2CCCC(CO)C2)c1 (stereo not drawn) | > 100 µM (inactive)
CCCOc1cncc(S(=O)(=O)c2ccc3c(c2)CCN(C2CCC2)CC3)c1 | 50.1 µM
CCN(CC)c1ccc(C(=O)COc2ccc3c(c2)CCNCC3)cc1 | 31.6 µM

Structure (SMILES) | IC50
CN(C(=O)C[C@@H]1CCN(C(=O)C2CC2)C1)c1ccc(-c2ccc(C#N)cc2)cc1 | > 100 µM (inactive)
O=C(Nc1cccnc1)C1CCN(c2ccc(-c3ccco3)nn2)CC1 | > 100 µM (inactive)
O=C1CCCN1c1ccc(S(=O)(=O)N2CCN(S(=O)(=O)c3ccccc3)CC2)cc1 | > 100 µM (inactive)
O=C(CCCc1c[nH]c2ccccc12)N1CCN(c2ccc(N3CCOCC3)nn2)CC1 | > 100 µM (inactive)
COc1ccc(N2CCN(C(=O)c3csc(Nc4ccccc4S(C)(=O)=O)n3)CC2)nc1 | > 100 µM (inactive)
Cc1cc(-c2cnc(N3CCn4c(nnc4C4CC4)C3)nc2-c2ccncc2)on1 | > 100 µM (inactive)
O=C(CCN=C1NS(=O)(=O)c2ccccc21)Nc1ccc(S(=O)(=O)N2CCCC2)cc1 | > 100 µM (inactive)
COc1ccc(C(=O)N2CCN(c3ccc(-n4cccn4)nn3)CC2)cc1OC | > 100 µM (inactive)
Cc1cc(Cl)ccc1OCC(=O)N1CCc2c(cnc(C)c2CNC(=O)c2ccc(=O)[nH]n2)C1 | > 100 µM (inactive)
O=C(Nc1ccc(N2CCCC2)nc1)N1CCN(c2cnccn2)CC1 | > 100 µM (inactive)
O=C(CCn1nnc2cc(S(=O)(=O)N3CCCC3)ccc21)N1CCN(c2ccccn2)CC1 | > 100 µM (inactive)
N#Cc1cccc(NC(=O)CNc2ccccc2C(=O)NC2CC2)c1 | > 100 µM (inactive)
Cn1cccc1C1CCCN1CC(=O)Nc1ccc(S(=O)(=O)N2CCOCC2)cc1 (stereo not drawn) | > 100 µM (inactive)
Cc1ccc2nc(CCNC(=O)CCS(=O)(=O)c3ccc4c(c3)CC(=O)N4C)[nH]c2c1 | > 100 µM (inactive)
COc1ccc(NC(=O)c2ccc3c(=O)n(Cc4ccccn4)cnc3c2)cc1N1CCN(C)CC1 | > 100 µM (inactive)
O=C(c1cc2ccccc2[nH]1)N1CCC2(CC(Nc3ccncn3)C2)C1 (stereo not drawn) | 63.1 µM
